Data: ChEMBL document CHEMBL1147476, “Synthesis and evaluation of aminophosphinic acid derivatives as inhibitors of renal dipeptidase” (Bioorg Med Chem Lett, 2004)

The molecules below were run against T1, Dipeptidase 1 (Homo sapiens, UniProt P16444) (assay: Concentration required to inhibit renal dipeptidase (RDP) by 50% in crude lysates prepared from human colon cancer).
T1 sequence (P16444 whole entry): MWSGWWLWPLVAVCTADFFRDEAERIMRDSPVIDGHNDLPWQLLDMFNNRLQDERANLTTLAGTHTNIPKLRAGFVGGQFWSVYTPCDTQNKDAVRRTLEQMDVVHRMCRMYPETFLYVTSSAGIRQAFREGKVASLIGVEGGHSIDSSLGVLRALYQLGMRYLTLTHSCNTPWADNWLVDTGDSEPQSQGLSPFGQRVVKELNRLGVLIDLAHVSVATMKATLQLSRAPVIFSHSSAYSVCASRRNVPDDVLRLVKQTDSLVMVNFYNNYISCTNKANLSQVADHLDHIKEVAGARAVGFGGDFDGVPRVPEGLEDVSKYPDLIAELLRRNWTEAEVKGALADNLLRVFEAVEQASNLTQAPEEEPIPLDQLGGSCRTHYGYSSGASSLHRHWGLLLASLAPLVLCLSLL

SMILES	IC50
NC(CC1CCCCC1)P(=O)(O)C/C(=C/c1cccc(I)c1)C(=O)O (centres undefined)	250 nM
NC(CC1CCCCC1)P(=O)(O)C/C(=C/c1ccc(F)c(Br)c1)C(=O)O (centres undefined)	3000 nM
NC(CC1CCCCC1)P(=O)(O)C/C(=C/c1ccc(Cl)c(Cl)c1)C(=O)O (centres undefined)	200 nM
Nc1ccc(/C=C(\CP(=O)(O)C(N)CC2CCCCC2)C(=O)O)cc1 (centres undefined)	70 nM
NC(CC1CCCCC1)P(=O)(O)C/C(=C/c1ccc(F)c(Cl)c1)C(=O)O (centres undefined)	350 nM
Nc1ccc(/C=C(/CP(=O)(O)C(N)CC2CCCCC2)C(=O)O)cc1 (centres undefined)	150 nM
NC(CC1CCCCC1)P(=O)(O)C/C(=C/c1ccc(Br)cc1)C(=O)O (centres undefined)	30 nM
NC(CC1CCCCC1)P(=O)(O)C/C(=C\c1cccc(I)c1)C(=O)O (centres undefined)	45 nM
NC(CC1CCCCC1)P(=O)(O)C/C(=C\c1ccccc1I)C(=O)O (centres undefined)	100 nM
NC(CC1CCCCC1)P(=O)(O)C/C(=C/c1ccccc1I)C(=O)O (centres undefined)	1000 nM
NC(CC1CCCCC1)P(=O)(O)C/C(=C\c1ccc(F)c(Br)c1)C(=O)O (centres undefined)	40 nM
NC(CC1CCCCC1)P(=O)(O)C/C(=C\c1ccc(F)c(Cl)c1)C(=O)O (centres undefined)	30 nM
NC(CC1CCCCC1)P(=O)(O)C/C(=C/c1ccc(C(F)(F)F)cc1)C(=O)O (centres undefined)	200 nM

Now those with a lower IC50, led by results:

IC50	SMILES
6 nM	NC(CC1CCCCC1)P(=O)(O)C/C(=C\c1ccc(Br)cc1)C(=O)O (centres undefined)
15 nM	NC(CC1CCCCC1)P(=O)(O)C/C(=C/c1ccc(F)cc1)C(=O)O (centres undefined)
5 nM	NC(CC1CCCCC1)P(=O)(O)C/C(=C\c1ccc(F)cc1)C(=O)O (centres undefined)
8 nM	NC(CC1CCCCC1)P(=O)(O)C/C(=C\c1ccc(I)cc1)C(=O)O (centres undefined)
20 nM	NC(CC1CCCCC1)P(=O)(O)C/C(=C\c1ccc(Cl)c(Cl)c1)C(=O)O (centres undefined)
25 nM	NC(CC1CCCCC1)P(=O)(O)C/C(=C/c1ccc(I)cc1)C(=O)O (centres undefined)
